Data reported in patent publication US20150104525A1, “METHOD OF DECREASING FEED CONVERSION RATIO IN FOWL” (Reoxcyn Discoveries Group, Inc., priority 2013, published 2015).

System: NRF2
Experiment: Western Blot validation of NRF2 nuclear accumulation and extra-nuclear protein phosphorylation
Assay type: cell-based, human
Settings: HMVEC-L
Method: 8. A Western Blot analysis was done on extra-nuclear and intra-nuclear fractions, separated by differential centrifugation, of serum starved HMVEC-L cell cultures exposed to <1% of a composition of the invention compared with a positive hydrogen peroxide control to determine phosphorylation events (oxidant action) in the extra-nuclear fraction and NRF2 (antioxidant transcription) in the intra-nuclear fraction at 0, 30, 60, 90 and 120 min intervals.
Experimental Methods for Western Blot Validation of NRF2 Nuclear Accumulation: HMVEC-L were treated with 1% of a composition of the invention, nuclear extracts were separated through centrifugal differentiation from the extra-nuclear cytosol at 30, 60 and 120 min and subjected to Western Blot analysis for NRF2. In the Western blot experiment the extra-nuclear fraction was probed for phosphorylated proteins using a combination of anti-phospho serine, threonine and tyrosine antibodies. Virtually all cellular processes are regulated by posttranslational modifications and protein phosphorylation is a prevalent mechanism. […]

OO [H2O2, Hydrogen peroxide]
nuclear NRF2 levels (H2O2 positive control, 30 min): did not increase nuclear NRF2 levels
phosphorylation of extra-nuclear protein (H2O2 treatment): marked increase in the phosphorylation
